Measurements from ChEMBL document CHEMBL1139785, “Synthesis of novel HIV protease inhibitors (PI) with activity against PI-resistant virus” (Bioorg Med Chem Lett, 2007).

Columns and labels:
Protease = Protease (Human immunodeficiency virus 1, UniProt Q9YQ12); assay: Inhibition of wild type HIV1 NL4-3 protease
[1] = test system: Human immunodeficiency virus 1; assay: Antiviral activity against HIV1 NL4-3 in MT4 cells by viral spread assay; assay type: functional; details: Human immunodeficiency virus 1, NL4-3, MT4; read-out: CIC95
[2] = test system: Human immunodeficiency virus 1; assay: Antiviral activity against HIV1 with protease V18C mutant in MT4 cells by viral spread assay; details: Human immunodeficiency virus 1, MT4; read-out: CIC95
[3] = Inhibition of HIV1 NL4-3 protease V18C mutant; design: species or system Human immunodeficiency virus 1
[4] = test system: Human immunodeficiency virus 1; assay: Antiviral activity against HIV1 with protease K60C mutant in MT4 cells by viral spread assay; details: Human immunodeficiency virus 1, MT4; read-out: CIC95
[5] = Inhibition of HIV1 NL4-3 protease K60C mutant; design: species or system Human immunodeficiency virus 1

Sequence of Protease (Q9YQ12 whole entry): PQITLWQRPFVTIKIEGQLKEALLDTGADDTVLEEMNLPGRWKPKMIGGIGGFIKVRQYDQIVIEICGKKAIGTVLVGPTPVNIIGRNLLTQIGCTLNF

| Compound | IC50 (Protease) | IC95 [1] | IC95 [2] | IC50 [3] | IC95 [4] | IC50 [5] |
| --- | --- | --- | --- | --- | --- | --- |
| Cc1cccc(C)c1CNC(=O)[C@H]1N(C(=O)[C@@H](O)C[C@@H](Cc2ccccc2)C(=O)N[C@H]2c3ccccc3OC[C@H]2O)CSC1(C)C | 0.03 nM | 15 nM |  |  |  |  |
| Cc1cccc(C)c1CNC(=O)[C@H]1N(C(=O)[C@@H](O)C[C@@H](Cc2ccccc2)C(=O)N[C@H]2c3ccccc3OC[C@H]2O)COC12CCCC2 | 0.1 nM | 8 nM | 62 nM | 0.5 nM | 125 nM |  |
| O=C(N[C@H]1c2ccccc2OC[C@H]1O)[C@H](Cc1ccccc1)C[C@H](O)C(=O)N1COC2(CCCC2)[C@H]1C(=O)NCc1c(Cl)cccc1Cl | 0.11 nM | 62.5 nM | 500 nM | 1 nM | 250 nM | 0.5 nM |
| Cc1cccc(C)c1CNC(=O)[C@@H]1CCCN1C(=O)[C@@H](O)C[C@@H](Cc1ccccc1)C(=O)N[C@H]1c2ccccc2OC[C@H]1O | 14 nM | 1000 nM |  |  |  |  |
| Cc1nsc(C)c1CNC(=O)[C@H]1N(C(=O)[C@@H](O)C[C@@H](Cc2ccccc2)C(=O)N[C@H]2c3ccccc3OC[C@H]2O)COC12CCCC2 | 0.1 nM | 125 nM | 250 nM | 0.8 nM | 250 nM | 0.4 nM |
| Cc1noc(C)c1CNC(=O)[C@H]1N(C(=O)[C@@H](O)C[C@@H](Cc2ccccc2)C(=O)N[C@H]2c3ccccc3OC[C@H]2O)COC12CCCC2 | 0.2 nM | 250 nM | 1000 nM | 3.2 nM | 500 nM | 1.5 nM |
| CC(C)(C)NC(=O)[C@@H]1CN(Cc2cccnc2)CCN1C[C@@H](O)CC(Cc1ccccc1)C(=O)N[C@H]1c2ccccc2C[C@H]1O (single isomer, unassigned) |  | 45 nM | 890 nM | 43.6 nM | 1000 nM | 61 nM |
| Cc1cccc(C)c1CNC(=O)[C@@H]1CCN1C(=O)[C@@H](O)C[C@@H](Cc1ccccc1)C(=O)N[C@H]1c2ccccc2OC[C@H]1O | 90 nM | 1000 nM |  |  |  |  |
| Cc1cccc(C)c1CNC(=O)[C@H]1N(C(=O)[C@@H](O)C[C@@H](Cc2ccccc2)C(=O)N[C@H]2c3ccccc3OC[C@H]2O)CCC1(C)C | 0.14 nM | 15 nM | 31 nM | 0.4 nM | 500 nM | 1.6 nM |
| Cc1cccc(C)c1CNC(=O)[C@@H]1CCCCN1C(=O)[C@@H](O)C[C@@H](Cc1ccccc1)C(=O)N[C@H]1c2ccccc2OC[C@H]1O | 42 nM | 1000 nM |  |  |  |  |
| Cc1cccc(C)c1CNC(=O)[C@H]1N(C(=O)[C@@H](O)C[C@@H](Cc2ccccc2)C(=O)N[C@H]2c3ccccc3OC[C@H]2O)COC1(C)C | 0.17 nM | 15 nM | 62 nM | 1.3 nM | 500 nM | 2.2 nM |
